Patent US8921124B2, “Pyrazole-based cyanine dye” (Wako Pure Chemical Industries, Ltd., priority 2006, dated 2014)

How the values were obtained:
[1] = Relative fluorescence intensity, roughly calculated relative to Cy5 per 1 μM as 100; type: physicochemical
Description: Relative fluorescence intensity of a compound of the present invention was roughly calculated relative to fluorescence intensity of Cy5, which is a conventional cyanine dye.
First, fluorescence intensity of Cy5 per 1 μM was measured from fluorescence intensity of Cy5, and relative fluorescence intensity of the compound of the present invention was roughly calculated relative to this fluorescence intensity value as 100.
(§1) Into 1 mL of purified water, Cy5 for labeling 1 mg of protein (manufactured by GE Healthcare Bioscience Biohealth Co., Ltd.), was dissolved. This solution was diluted 200 times with a 50 mM phosphoric acid buffer solution (pH 7.5) to measure OD value (0.1020).
(§2) Concentration of a Cy5 solution was determined from this OD value and molar absorption coefficient (ε=250,000), [described in a general product catalogue 2006 “7-4” of GE Healthcare Bioscience Co., Ltd.]), (0.408 μM). Then fluorescence was measured using the present solution.
Relative fluorescence intensities of the compounds (13), (21), (32) and (38) of the present invention were roughly estimated relative to fluorescence intensity of Cy5 per 1 μM, obtained in Example 8, (1), as 100.
Relative fluorescence intensity of a compound of the present invention was roughly calculated based on fluorescence intensity of Cy5, which is a conventional cyanine dye derivative.
First, fluorescence intensity of Cy5 per 1 μM was measured from fluorescence intensity of Cy5, and relative fluorescence intensity of the compound of the present invention was roughly calculated based on this fluorescence intensity value as 100.
Into 1 mL of purified water, Cy5 (manufactured by GE Healthcare Bioscience Biohealth Co., Ltd.) for labeling 1 mg of protein, was dissolved. This solution was diluted 200 times with a 50 mM phosphoric acid buffer solution (pH 7.5) to measure OD value (0.1020).
Concentration of a Cy5 solution was determined from this OD value and molar absorption coefficient (E=250,000, [described in a general product catalogue 2006 “7-4” of GE Healthcare Bioscience Co., Ltd.]), (0.408 μM).
Then fluorescence of Cy5 was measured using the present solution.
Relative fluorescence intensity of the compound (40) of the present invention, obtained in Example 11 and the compound (43) of the present invention, obtained in Example 12 were roughly calculated, relative to fluorescence intensity per 1 μM of Cy5, obtained in Example 14, (1), as 100.

[2] = described in general product catalogue 2006 of GE Healthcare Bioscience; in M-1cm-1; cited from earlier work
[3] = Fluorescence characteristics (max. absorption, excitation and fluorescence wavelengths, molar absorption coefficient); type: physicochemical
Description: Fluorescence characteristics are shown below.
as §1, §2

[4] = Cy5 solution 0.408 μM in 50 mM phosphoric acid buffer solution (pH 7.5)
[5] = 0.408 μM solution in 50 mM phosphoric acid buffer solution (pH 7.5)

SMILES: CCN1/C(=C/C=C/C=C/C2=[N+](CCCCCC(=O)O)c3ccc(S(=O)(=O)O)cc3C2(C)C)C(C)(C)c2cc(S(=O)(=O)[O-])ccc21 [Cy5]
- Fluorescence intensity [1, 4]: 3,161
- Fluorescence intensity of Cy5/1 μM ([1]; per 1 μM, from intensity at 0.408 μM): 7,747
- Fluorescence intensity of Cy5/1 μM ([1]; per 1 μM, from the intensity of the 0.408 μM solution): 7,747
- Relative fluorescence intensity [relative to fluorescence intensity of Cy5 (1 μM) as 100] ([1]; roughly calculated, Cy5 per 1 μM = 100): 100
- Relative fluorescence intensity [relative to fluorescence intensity of Cy5 (1 μM) as 100] ([1]; roughly calculated; Cy5 per 1 μM = 100): 100
- molar absorption coefficient (ε) [2]: 250,000
- Max. excitation wavelength [Ex(max)] [3, 5]: 649 nm
- Max. fluorescence wavelength [Em(max)] [3, 5]: 670 nm
- Max. excitation wavelength [Ex(max)] [3, 4]: 649 nm
- Max. fluorescence wavelength [Em(max)] [3, 4]: 670 nm
